Series [1] has as its target T1, human SSTR2 (Homo sapiens, UniProt P30874).
T1 construct: Myc; expressed in transfected cells
The series is described as follows: Evaluation of SSTR2 agonistic activity using cells expressing human SSTR2 (suppression of forskolin-stimulated cAMP production, SSTR2-CHO-K1). The class given is cell-based. As for the experimental part:
Evaluation of SSTR2 Agonistic Activity Using Cells Expressing Human SSTR2
(1) Isolation of Human SSTR2 Gene
Human brain cDNA was purchased from Ambion (catalogue No.: 7962; Lot No.: 040200121). PCR primers, hSSTR2_F1_XhoI: 5′-[…]-3′ (SEQ ID NO: 1) and hSSTR2_R1_EcoRI: 5′-[…]-3′ (SEQ ID NO: 2) were designed on the basis of the sequence GenBank NM_001050.
PCR reaction (95° C. for 2 min.→[98° C. for 10 sec., 60° C. for 30 sec. and 68° C. for 90 sec.]×30 cycles) was carried out using the human brain cDNA as a template and using KOD-plus-(TOYOBO Co., Ltd.). The amplified PCR product was subjected to 1% agarose gel electrophoresis, purified using QIAquick Gel Extraction Kit (QIAGEN) and digested with restriction enzymes XhoI and EcoRI. The digested fragments were ligated to an expression vector (pIRESneo-Myc) using the DNA Ligation Kit Ver. 2 (Takara) and used for transformation of E. coli DH5a. The plasmid pIRESneo-Myc/hSSTR2 was prepared and the DNA sequence thereof was confirmed.
(2) Culture of CHO-K1 Cells
CHO-K1 (−) was cultured in Ham's F-12 medium (containing foetal bovine serum (10%), penicillin (100 U/mL) and streptomycin (0.1 mg/mL)). The transduced cells were cultured in the same medium supplemented with Geneticin (1 mg/mL).
(3) Transduction of CHO-K1 Cells
CHO-K1(−) cells were transduced with the plasmid pIRESneo-Myc/hSSTR2 using Lipofectamine 2000 (Invitrogen). After 48 hours, selection was carried out by replacing the medium with the one containing 1 mg/mL of Geneticin to establish a stable overexpressing cell line (SSTR2-CHO-K1).
(4) Evaluation of SSTR2 Agonistic Activity
The human SSTR2 agonistic activity of a test compound was evaluated according to the following procedures by using a suppression activity of intracellular cyclic AMP (cAMP) production by forskolin stimulation as an index. SSTR2-CHO-K1 cells suspended in Ham's F-12 medium (containing foetal bovine serum (10%), penicillin (100 U/mL) and streptomycin (0.1 mg/mL)) supplemented with 0.25 mg/mL of Geneticin were inoculated into a 96-well plate at a density of 4.0×10^4 cells/0.1 mL per well. On the next day, the medium was removed and washed twice with 0.1 mL of wash buffer [0.1% bovine serum albumin (BSA), 20 mmol/L 4-(2-hydroxyethyl)-1-piperazineethane sulphonic acid (HEPES)-containing Hank's balanced salt solution (HBSS)]. An assay buffer [[…] 3-isobutyl-1-methylxanthine (IBMX), 0.1% BSA, 20 mmol/L HEPES-containing HBSS] was added to the wells at 0.06 mL per well and the plate was incubated for 15 minutes under the conditions of 5% carbon dioxide and 37° C. Thereafter, an assay buffer containing a test compound at a concentration twice as high as the final concentration and 0.02 mmol/L of forskolin was added to wells at 0.06 mL per well and the plate was incubated for 30 minutes under the conditions of 5% carbon dioxide and 37° C. Thereafter, the Assay/Lysis buffer included in the cAMP-Screen® kit (available from Applied Biosystems) was added to wells at 0.12 mL per well and the plate was incubated for 30 minutes under the conditions of 5% carbon dioxide and 37° C. The concentration of cAMP in samples were measured by ELISA according to the instruction of the kit.
On the technique in general: cAMP levels reflect the balance of adenylyl cyclase and phosphodiesterase activity.

Series [2] concerns growth hormone (GH) secretion. The series is described as follows: Evaluation of suppression of growth hormone (GH) secretion using rats (GHRH-induced). As to conditions: Rattus norvegicus, Procedure (B): oral administration 8 hours beforehand, read-out: percentage of suppression of GH secretion. In kind it is in vivo. As for the experimental part: Evaluation of Suppression of Growth Hormone (GH) Secretion Using Rats
[Procedure (A): Administration of a Test Compound 30 Minutes Beforehand]
A medium (distilled water (Otsuka distilled water, Otsuka Pharmaceutical Factory, […]) IGS rats (Charles River Laboratories Japan, Inc.)) and after 27 minutes, the animals were administered with 50 mg/kg of pentobarbital sodium (Somnopentyl, Kyoritsu Seiyaku Corporation) via the tail vein for anaesthesia. Three minutes after administration of pentobarbital sodium, the rats were administered with 0.01 mg/kg of growth hormone-releasing hormone (GHRH, Bachem) via the tail vein to induce GH secretion. In order to measure the blood GH concentration, 0.2 mL of blood was collected through the jugular vein at 5 minutes after administration of GHRH. The collected blood was centrifuged at 4° C., 13,000×g for 5 minutes to obtain plasma. The blood GH concentration was measured by using Rat/Mouse Growth Hormone ELISA (Millipore) following the instruction of the kit. The percentage (%) of suppression of GH secretion was determined by using the obtained blood GH concentration and the equation {[suppression (%) of GH secretion]=([blood GH concentration of the group administered with the medium]−[blood GH concentration of the group administered with a test compound])/[blood GH concentration of the group administered with the medium]×100}. In the equation, the group administered with the medium represents the group of animals administered with the medium and the group administered with a test compound represents the group of animals administered with a test compound dissolved in the medium.
[Procedure (B): Administration of a Test Compound 8 Hours Beforehand]
A medium (distilled water (Otsuka distilled water, Otsuka Pharmaceutical Factory, […]) IGS rats (Charles River Laboratories Japan, Inc.)) and after 7 hours and 57 minutes, the animals were administered with 50 mg/kg of pentobarbital sodium (Somnopentyl, Kyoritsu Seiyaku Corporation) via the tail vein for anaesthesia. Three minutes after administration of pentobarbital sodium, the rats were administered with 0.01 mg/kg of growth hormone-releasing hormone (GHRH, Bachem) via the tail vein to induce GH secretion. The rest of the procedure is the same as in [Procedure (A)] described above.

Series [3] is described as follows: Human hepatic microsome stability test. The class given is in vitro ADME. As to conditions: human hepatic microsomes 1 mg/mL; 60 minutes; test compound 0.001 mmol/L; 37° C. As for the experimental part: Human Hepatic Microsome Stability Test
To a reaction vessel heated to 37° C. in a water bath, 0.392 mL of phosphate buffer (0.1 mol/L, pH 7.4) containing human hepatic microsomes (1 mg/mL, Xenotech) and NADPH-Co-factor (NADP+1.3 mmol/L, BD-Bioscience) was added and pre-incubated for 5 minutes. A 50% acetonitrile solution (0.008 mL) containing 0.05 mmol/L of a test compound was added thereto to initiate the enzyme reaction (final concentration of the test compound: 0.001 mmol/L). Immediately after initiation of the reaction and at 60 minutes thereafter, 0.050 mL of the reaction solution was respectively collected, which was immediately added to an acetonitrile solution (0.2 mL) containing an internal standard (45 nmol/L, 1-[3-(3,5-dimethylphenyl)-4-quinolinyl]-4-piperidineamine) to terminate the enzyme reaction.
The residual rate (%), which is indicative of stability of the test compound, was calculated using the ratio of peak areas between the test compound and the internal substance determined by LC/MS/MS (TSQ Quantum Discovery MAX, Thermo) analysis of the sample thus prepared by the above procedures followed by filtration, and the equation: {[residual rate (%)=[peak area of a test compound in a sample at 60 minutes after initiation of the reaction/peak area of the internal standard]/[peak area of the test compound in the sample immediately after initiation of the reaction/peak area of the internal standard]×100}.

Series [4] is described as follows: Evaluation of cytotoxicity using cultured human hepatocytes (intracellular ATP). The class given is cell-based. As to conditions: read-out: IC50 of cytotoxicity (concentration at which 50% of the luminescence is suppressed). As for the experimental part: Evaluation of Cytotoxicity Using Cultured Human Hepatocytes
Frozen adhesive human hepatocytes were thawed, suspended in a hepatocellular medium (HCM) purchased from Lonza and inoculated to a 96-well plate coated with collagen. The culture medium of the hepatocytes cultured overnight in an incubator (5% carbon dioxide, 95% air, 37° C.) was exchanged to the medium containing a test compound at a concentration of 0, 12.5, 25, 50, 100, 200 or 400 (×10^−6 mol/L) and the cells were further cultured for 24 hours. Cytotoxicity was evaluated by measuring the intracellular ATP concentration. Specifically, using the Promega Celltiter-Glo luminescent assay kit available from Promega, cells were lysed in the assay buffer included in the kit and the concentration of ATP released from the cells was measured according to the luminescence resulting from luciferin-luciferase enzyme activity. The luminescence was measured on the SpectraMax plate reader from Molecular Devices. The extent of cytotoxicity of a test compound is represented by the concentration (IC50) of the compound at which 50% of the luminescence is suppressed.

The EC50 is the concentration giving half of the maximal effect. Lower therefore signals greater potency.

T1 sequence (P30874 whole entry): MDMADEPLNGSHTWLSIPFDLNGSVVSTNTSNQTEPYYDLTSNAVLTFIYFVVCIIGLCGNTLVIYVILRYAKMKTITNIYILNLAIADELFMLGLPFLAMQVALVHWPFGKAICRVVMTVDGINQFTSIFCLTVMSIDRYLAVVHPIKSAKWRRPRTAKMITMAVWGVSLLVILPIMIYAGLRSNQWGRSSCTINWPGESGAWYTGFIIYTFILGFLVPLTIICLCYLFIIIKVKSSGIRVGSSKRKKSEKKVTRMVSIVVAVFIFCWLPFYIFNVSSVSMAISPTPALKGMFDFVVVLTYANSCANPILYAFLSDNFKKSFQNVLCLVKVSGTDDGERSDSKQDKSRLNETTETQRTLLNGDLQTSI

As to `CCNC1CCN(c2c(-c3ccc(C4(C#N)CC4)cc3)cncc2-c2cc(Cl)cc(Cl)c2)CC1` [Example 5(2), 1-(4-{5-(3,5-dichlorophenyl)-4-[4-(ethylamino)-1-piperidinyl]-3-pyridinyl}phenyl)cyclopropanecarbonitrile], the EC50 in series [1] came out at 0.036 nM. The inhibition in vivo at 1 mg/kg in series [2] was 90%. For the same compound, the residual rate in series [3] was found to be 80.3%. Moreover, the IC50 at 24 h in series [4] amounted to 22000 nM.
The compound `CCNC1CCN(c2c(/C=C(\C)c3cccc(F)c3)cncc2-c2cc(Cl)cc(Cl)c2)CC1` [Example 5(5), 1-{3-(3,5-dichlorophenyl)-5-[(1E)-2-(3-fluorophenyl)-1-propen-1-yl]-4-pyridinyl}-N-ethyl-4-piperidineamine] had a half-maximal effective concentration (EC50) in series [1] of 0.071 nM. The inhibition in vivo at 1 mg/kg in series [2] came out at 85%. This compound also came in with a residual rate in series [3] of 88.6%. In addition, the IC50 at 24 h in series [4] was found to be 17000 nM.
In series [1], `CCNC1CCN(c2c(-c3ccc(C(C)(C)C#N)cc3)cncc2-c2cc(Cl)cc(Cl)c2)CC1` [Example 5(4), 2-(4-{5-(3,5-dichlorophenyl)-4-[4-(ethylamino)-1-piperidinyl]-3-pyridinyl}phenyl)-2-methylpropanenitrile] returned a 50% effective concentration (EC50) of 0.021 nM. Besides, the inhibition in vivo at 1 mg/kg in series [2] was found to be 89%. In addition, in series [3], the residual rate is reported as 74.9%. In series [4], the IC50 at 24 h was determined as 17000 nM.
Compound `COc1ccc(F)cc1C(=O)Nc1cncc(-c2cc(Cl)cc(Cl)c2)c1N1CCC(N)CC1` [Example 7(1), N-[4-(4-amino-1-piperidinyl)-5-(3,5-dichlorophenyl)-3-pyridinyl]-5-fluoro-2-methoxybenzamide] returned a concentration for a half-maximal effect (EC50) in series [1] of 0.26 nM. Also, the inhibition in vivo at 3 mg/kg in series [2] (3 mg/kg) was found to be 88%. In series [3], this compound gave a residual rate of 92.9%. In addition, the IC50 at 24 h in series [4] was found to be 34000 nM.
As to `N#Cc1cccc(/C=C/c2cncc(-c3cc(Cl)cc(Cl)c3)c2N2CCC(N)CC2)c1` [Example 4(1), 3-{(E)-2-[4-(4-amino-1-piperidinyl)-5-(3,5-dichlorophenyl)-3-pyridinyl]vinyl}benzonitrile], a half-maximal response in series [1] (EC50) required 0.038 nM. Besides, the inhibition in vivo at 1 mg/kg in series [2] was 84%. For the same compound, the residual rate in series [3] came to 49.9%.
Turning to `C/C(=C\c1cncc(-c2cc(Cl)cc(Cl)c2)c1N1CCC(N)CC1)c1cccc(C#N)c1` [Example 4, 3-{(1E)-1-[4-(4-amino-1-piperidinyl)-5-(3,5-dichlorophenyl)-3-pyridinyl]-1-propen-2-yl}benzonitrile], the concentration for a half-maximal effect (EC50) in series [1] was 0.034 nM. Further, the inhibition in vivo at 1 mg/kg in series [2] amounted to 84%. The compound also yielded a residual rate in series [3] of 100.0%. Further, in series [4], the IC50 at 24 h came out at 17000 nM.
For the compound `NC1CCN(c2c(/C=C/c3cccc(Cl)c3)cncc2-c2cc(F)cc(Cl)c2)CC1` [Example 3(1), 1-{3-(3-chloro-5-fluorophenyl)-5-[(E)-2-(3-chlorophenyl)vinyl]-4-pyridinyl}-4-piperidineamine], the response in series [1] was half-maximal at 0.11 nM (EC50). Also, the inhibition in vivo at 1 mg/kg in series [2] was 86%. The compound further showed a residual rate in series [3] of 50.3%. Moreover, the IC50 at 24 h in series [4] is 19000 nM.
With `Cc1cc(C)cc(-c2cncc(-c3nc4c(C)cc(C)cc4[nH]3)c2N2CCC(N)CC2)c1` [formula (P), reference compound], the residual rate in series [3] was found to be 1.2%.
Turning to `N[C@@H]1CCN(c2c(-c3ccc(C(F)(F)F)cc3)cncc2-c2cc(Cl)cc(Cl)c2)C[C@@H]1O` [Example 6, (3S,4R)-4-amino-1-{3-(3,5-dichlorophenyl)-5-[4-(trifluoromethyl)phenyl]-4-pyridinyl}-3-piperidinol], it took 0.027 nM to reach a half-maximal effect in series [1] (EC50). Further, the inhibition in vivo at 1 mg/kg in series [2] was 89%. The same compound registered a residual rate in series [3] of 89.9%.
As to `CO[C@@H]1CN(c2c(-c3ccc(C(F)(F)F)cc3)cncc2-c2cc(Cl)cc(Cl)c2)CC[C@H]1N` (racemic) [Example 2(6), rac-(3R,4R)-1-{3-(3,5-dichlorophenyl)-5-[4-(trifluoromethyl)phenyl]-4-pyridinyl}-3-methoxy-4-piperidineamine], in series [1], the half-maximal effective concentration (EC50) turned out to be 0.47 nM.
Turning to `CO[C@@H]1CN(c2c(-c3ccc(C(F)(F)F)cc3)cncc2-c2cc(Cl)cc(Cl)c2)CC[C@@H]1N` (racemic) [Example 2(7), rac-(3R,4S)-1-{3-(3,5-dichlorophenyl)-5-[4-(trifluoromethyl)phenyl]-4-pyridinyl}-3-methoxy-4-piperidineamine], in series [1], it took 0.17 nM to reach a half-maximal effect (EC50).
On to `Cc1cc(C)cc(-c2cnc3cc(Cl)c(-c4cnn(C)c4)cc3c2OCC[C@H]2CCCCN2)c1` [formula (M), reference compound], for which the IC50 at 24 h in series [4] came to 13000 nM.

The record behind these values is patent US9643951B2, “Compound having somatostatin receptor agonistic activity and pharmaceutical use thereof” (ONO PHARMACEUTICAL CO., LTD., priority 2013, dated 2017).
